Laboratory results taken from PubChem BioAssay (NCI).
Where “and” joins values, the source holds several entries; their conditions need not be identical. Equal entries are not always repeated.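 Five concentrations, 48 hours, 96-well plates. The concentration for 50% growth inhibition is given as GI50. At the TGI there is no net growth.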

Legend:
Assay in all cases: NCI tumour cell line growth inhibition, 48 h
TK-10 renal = tested on: TK-10 renal
K-562 leukemia = tested on: K-562 leukemia
SK-MEL-5 melanoma = tested on: SK-MEL-5 melanoma
MDA-MB-435 = tested on: MDA-MB-435
IGROV1 ovarian = tested on: IGROV1 ovarian
HS 578T breast = tested on: HS 578T breast
EKVX NSCLC = tested on: EKVX NSCLC
PC-3 prostate = tested on: PC-3 prostate
MDA-MB-231 breast = tested on: MDA-MB-231 breast
HCT-116 colon = tested on: HCT-116 colon

Row | SMILES | TGI (TK-10 renal) [µM] | TGI (K-562 leukemia) [µM] | TGI (SK-MEL-5 melanoma) [µM] | TGI (MDA-MB-435) [µM] | TGI (IGROV1 ovarian) [µM] | TGI (HS 578T breast) [µM] | TGI (EKVX NSCLC) [µM] | TGI (PC-3 prostate) [µM] | TGI (MDA-MB-231 breast) [µM] | TGI (HCT-116 colon) [µM] | GI50 (EKVX NSCLC)
1 | CN1C(C)(C)CC(=O)C(Br)C1(C)C (centres undefined) | > 100 | > 100 | > 100 | > 100 | > 100 | > 100 | > 100 | > 100 |  |  | 
2 | O=c1oc2ccc3ccccc3c2cc1-c1cn2c(n1)sc1ccccc12 | > 100 | > 100 | > 100 | > 100 | > 100 | > 100 | > 100 | > 100 | > 100 | > 100 | 
3 | CC(CNC(=O)c1ccccc1)(CNC(=O)c1ccccc1)[N+](=O)[O-] | > 100 | > 100 | > 100 | > 100 | > 100 | > 100 | > 100 | > 100 | > 100 | > 100 | 
4 | CC(=O)OCC1OC(OC(C)=O)C(Nc2ncc(-c3ccc(C)cc3)s2)C(OC(C)=O)C1OC(C)=O (centres undefined) | 32.9 | 65.8 | 29.2 | 30.3 | 36.4 | 69.5 | 27.6 | 45.3 | 49.8 | 32.1 | 
5 | CCCCCCCCCCCCCCCC(=O)Nc1ccn(C2CCC(COP(=O)(O)OCC3OC(n4cc(F)c(=O)[nH]c4=O)CC3OC(C)=O)O2)c(=O)n1 (centres undefined) | > 76.7 | > 38.2 | 26.9 | 44.2 | > 100 | > 100 | > 100 | 56.8 | > 61.6 | 34.1 | 
6 | O=[N+]([O-])c1ccc(CN=C2NNS(=O)(=O)c3ccccc32)cc1 |  | > 100 | > 100 |  | > 100 |  | > 100 |  |  | > 100 | 
7 | CN(C)CCN(C)C(=O)C1CCCN1C(=O)OCc1ccccc1 (centres undefined) | > 100 | > 100 | > 100 |  | > 100 |  | > 100 |  |  | > 100 | 
8 | CC[C@@H]1CC[C@@H]2[C@H](CC[C@]3(C)[C@@H](OC(C)=O)CC[C@@H]23)[C@H]1C(=O)OC | > 100 | 40.1 | 27.7 | 41.9 | 89.8 | > 100 | 58.6 | 67.3 | 46 | 33.7 | 
9 | O=C1CCSc2nc(-c3ccc4c(c3)OCO4)nn21 | > 10 | > 10 | > 10 | > 10 | > 10 | > 10 | > 10 | > 10 | > 10 | > 10 | 
10 | CC(C)CC(NC=O)C(=O)NC(Cc1ccccc1)NC(=O)CNC(=O)C(C)NC(=O)C(N)Cc1ccc(O)cc1 (centres undefined) | > 100 | > 100 | > 100 | > 100 | > 100 | > 100 | > 100 | > 100 | > 100 | > 100 | 
11 | Cc1ccc(S(=O)(=O)ON2C(=O)c3c(N)c(C#N)c(-c4ccccc4)c(-c4ccccc4)c3C2=O)cc1 | 36.8 | > 100 | 40.6 | 22.1 | 30.6 | > 100 | 29.1 | 32.7 | 36.4 | 33.1 | 
12 | CC(=O)Oc1ccc(Nn2c3ccccc3c3ccccc32)c(C)c1 | > 100 | > 100 | > 100 |  | 94.2 |  |  |  |  | > 100 | 
13 | COc1ccccc1N1C(=O)CSC1c1cc(OC)c(OC)c(OC)c1 (centres undefined) | > 100 | > 100 | > 100 | 40 | > 100 | > 100 | > 100 | > 100 | > 100 | > 100 | 
14 | C=CC(OC(=O)C(C)C)c1ccc(OC(=O)C(C)C)cc1 (centres undefined) |  | 66.6 | 30.6 | 26.4 | 32.7 | > 100 | 39.3 | 21.9 | 35.5 | 20.6 | 
15 | COC(=O)c1ccc(C)cc1C1CN=NC12Cc1cc(C)ccc1C2=O (centres undefined) | 71.7 | > 68.1 | 21.6 | 6.12 | > 100 | 41.3 | > 95.5 | 58.1 | 64.9 | 28.6 | 
16 | COC(=O)CC(CNC(=O)OCc1ccccc1)OCc1ccc(OC)cc1 (centres undefined) | > 100 | > 100 | > 100 | > 100 | > 100 |  | > 100 | > 100 | > 100 | > 100 | 
17 | O=C(NCCc1ccccc1)c1cc(/C=C/c2cc(O)ccc2O)ccc1O | 7.16 | 7.49 | 7.32 | 25.8 | 11.3 | > 40.4 | 8.24 | 11.4 | 12.9 | 4.19 | 
18 | c1ccc2cc(CNCCCCNCCCNCc3ccc4ccccc4c3)ccc2c1 | 3.39 |  |  | 3.1 | 1.69 | 1.26 | 3.05 | 3.3 | 3.95 | 0.318 | 
19 | Nc1nc(N)c2ncn(-c3ccccc3)c2n1 | > 100 |  | > 100 | > 100 | > 100 | > 100 | > 100 | > 100 | > 100 | > 100 | 43.3 µM and 89.6 µM
20 | CC(C)OC(=O)NNc1cccc(Cl)c1 | > 100 | > 100 | > 100 | > 100 |  | > 100 | > 100 | > 100 | > 100 | > 100 | 
21 | Cc1ccc(SCC(CF)OC(C)n2cnc3c(Cl)nc(N)nc32)cc1 (centres undefined) | > 100 |  | 53.7 | > 100 | > 100 | > 100 |  | > 100 | > 100 | > 100 | 
22 | CC1CCC2CC1NC(=O)CCOCCC(=O)NC2(C)C (centres undefined) | > 100 | > 100 | > 100 | > 100 | > 100 |  | > 100 | > 100 | > 100 | > 100 | 
23 | CN1c2ccccc2C(=O)NC12CCNCC2 | > 100 | > 100 | > 100 | > 100 | > 100 | 40 | > 100 |  |  | > 100 | 
